US12162866B1, “Crystal form of pyrazolyl-amino-pyrimidinyl derivative, and preparation method therefor and use thereof” (LYNK PHARMACEUTICALS CO., LTD., priority 2023, dated 2024)
Values after ≈ are worked out from the molar mass of the structure shown.

Key:
keratinocytes = experiment: proliferation of keratinocytes; format: cell-based; conditions: preclinical study
p-STAT signaling pathway = p-STAT signaling pathway induced by cytokines; conditions: in vivo and in vitro
JAK2 = JAK2 (Homo sapiens, UniProt O60674); experiment: migration detection kinase assay, JAK2
JAK2, sequence (O60674 whole entry): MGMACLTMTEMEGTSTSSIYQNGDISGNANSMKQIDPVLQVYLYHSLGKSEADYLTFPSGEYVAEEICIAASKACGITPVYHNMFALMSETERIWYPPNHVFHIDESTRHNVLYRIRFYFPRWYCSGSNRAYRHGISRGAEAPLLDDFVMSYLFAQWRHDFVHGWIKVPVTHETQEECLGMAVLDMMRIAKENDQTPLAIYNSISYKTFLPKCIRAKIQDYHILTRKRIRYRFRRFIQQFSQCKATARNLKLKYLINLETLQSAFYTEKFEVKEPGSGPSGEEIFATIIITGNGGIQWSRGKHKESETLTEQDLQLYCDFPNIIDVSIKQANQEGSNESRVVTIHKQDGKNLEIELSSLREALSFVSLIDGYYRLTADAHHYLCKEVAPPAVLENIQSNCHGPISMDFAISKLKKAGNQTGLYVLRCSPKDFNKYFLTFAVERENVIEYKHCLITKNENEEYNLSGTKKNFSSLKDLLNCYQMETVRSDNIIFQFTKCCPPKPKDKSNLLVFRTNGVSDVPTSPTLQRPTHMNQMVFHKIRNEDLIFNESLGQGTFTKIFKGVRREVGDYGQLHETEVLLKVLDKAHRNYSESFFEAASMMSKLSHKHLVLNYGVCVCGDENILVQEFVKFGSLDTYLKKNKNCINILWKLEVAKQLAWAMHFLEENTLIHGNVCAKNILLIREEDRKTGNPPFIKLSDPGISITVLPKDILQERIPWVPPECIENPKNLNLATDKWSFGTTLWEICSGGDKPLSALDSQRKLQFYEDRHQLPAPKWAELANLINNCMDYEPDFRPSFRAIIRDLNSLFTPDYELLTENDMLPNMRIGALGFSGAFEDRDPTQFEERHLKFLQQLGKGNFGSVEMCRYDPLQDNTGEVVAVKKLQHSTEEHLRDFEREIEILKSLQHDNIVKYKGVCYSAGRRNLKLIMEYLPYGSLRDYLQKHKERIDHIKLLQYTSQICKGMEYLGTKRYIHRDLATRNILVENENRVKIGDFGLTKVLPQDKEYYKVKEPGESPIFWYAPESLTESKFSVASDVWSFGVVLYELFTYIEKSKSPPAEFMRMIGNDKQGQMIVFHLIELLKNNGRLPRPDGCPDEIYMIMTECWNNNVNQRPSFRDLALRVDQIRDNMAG

JAK1 = JAK1 (Homo sapiens, UniProt P23458); experiment: migration detection kinase assay, JAK1; format: biochemical
JAK1, sequence (P23458 whole entry): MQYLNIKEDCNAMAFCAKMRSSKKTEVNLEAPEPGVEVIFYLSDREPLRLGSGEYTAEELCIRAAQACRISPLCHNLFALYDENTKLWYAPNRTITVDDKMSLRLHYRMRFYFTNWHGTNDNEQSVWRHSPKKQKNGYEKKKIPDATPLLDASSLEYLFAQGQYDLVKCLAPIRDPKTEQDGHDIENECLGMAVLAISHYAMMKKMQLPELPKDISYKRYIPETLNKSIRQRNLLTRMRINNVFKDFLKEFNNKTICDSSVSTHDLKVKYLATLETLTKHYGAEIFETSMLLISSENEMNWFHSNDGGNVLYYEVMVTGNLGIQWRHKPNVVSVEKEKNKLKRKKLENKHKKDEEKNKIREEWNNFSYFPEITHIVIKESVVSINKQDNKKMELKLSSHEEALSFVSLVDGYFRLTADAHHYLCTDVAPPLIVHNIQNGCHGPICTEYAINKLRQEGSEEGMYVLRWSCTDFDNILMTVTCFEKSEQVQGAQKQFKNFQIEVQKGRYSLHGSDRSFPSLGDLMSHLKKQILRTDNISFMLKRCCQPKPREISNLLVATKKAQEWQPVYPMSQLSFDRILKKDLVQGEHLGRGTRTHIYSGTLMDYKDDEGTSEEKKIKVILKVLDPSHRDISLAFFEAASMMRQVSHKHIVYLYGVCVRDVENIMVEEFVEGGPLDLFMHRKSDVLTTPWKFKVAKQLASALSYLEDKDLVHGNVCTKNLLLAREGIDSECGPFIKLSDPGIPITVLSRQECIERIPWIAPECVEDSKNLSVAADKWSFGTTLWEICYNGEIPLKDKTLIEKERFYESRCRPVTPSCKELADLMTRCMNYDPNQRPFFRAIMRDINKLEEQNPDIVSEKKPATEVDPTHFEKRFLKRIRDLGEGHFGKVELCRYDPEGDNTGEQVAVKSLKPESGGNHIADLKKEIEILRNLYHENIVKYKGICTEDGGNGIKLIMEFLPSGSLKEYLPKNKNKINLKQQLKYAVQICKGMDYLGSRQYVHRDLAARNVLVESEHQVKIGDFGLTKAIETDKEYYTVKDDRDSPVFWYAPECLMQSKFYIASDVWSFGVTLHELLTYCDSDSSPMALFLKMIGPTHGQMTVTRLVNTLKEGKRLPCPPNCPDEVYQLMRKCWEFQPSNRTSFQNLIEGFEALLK

TYK2 = TYK2 (Homo sapiens, UniProt P29597); experiment: migration detection kinase assay, TYK2; format: biochemical
TYK2, sequence (P29597 whole entry): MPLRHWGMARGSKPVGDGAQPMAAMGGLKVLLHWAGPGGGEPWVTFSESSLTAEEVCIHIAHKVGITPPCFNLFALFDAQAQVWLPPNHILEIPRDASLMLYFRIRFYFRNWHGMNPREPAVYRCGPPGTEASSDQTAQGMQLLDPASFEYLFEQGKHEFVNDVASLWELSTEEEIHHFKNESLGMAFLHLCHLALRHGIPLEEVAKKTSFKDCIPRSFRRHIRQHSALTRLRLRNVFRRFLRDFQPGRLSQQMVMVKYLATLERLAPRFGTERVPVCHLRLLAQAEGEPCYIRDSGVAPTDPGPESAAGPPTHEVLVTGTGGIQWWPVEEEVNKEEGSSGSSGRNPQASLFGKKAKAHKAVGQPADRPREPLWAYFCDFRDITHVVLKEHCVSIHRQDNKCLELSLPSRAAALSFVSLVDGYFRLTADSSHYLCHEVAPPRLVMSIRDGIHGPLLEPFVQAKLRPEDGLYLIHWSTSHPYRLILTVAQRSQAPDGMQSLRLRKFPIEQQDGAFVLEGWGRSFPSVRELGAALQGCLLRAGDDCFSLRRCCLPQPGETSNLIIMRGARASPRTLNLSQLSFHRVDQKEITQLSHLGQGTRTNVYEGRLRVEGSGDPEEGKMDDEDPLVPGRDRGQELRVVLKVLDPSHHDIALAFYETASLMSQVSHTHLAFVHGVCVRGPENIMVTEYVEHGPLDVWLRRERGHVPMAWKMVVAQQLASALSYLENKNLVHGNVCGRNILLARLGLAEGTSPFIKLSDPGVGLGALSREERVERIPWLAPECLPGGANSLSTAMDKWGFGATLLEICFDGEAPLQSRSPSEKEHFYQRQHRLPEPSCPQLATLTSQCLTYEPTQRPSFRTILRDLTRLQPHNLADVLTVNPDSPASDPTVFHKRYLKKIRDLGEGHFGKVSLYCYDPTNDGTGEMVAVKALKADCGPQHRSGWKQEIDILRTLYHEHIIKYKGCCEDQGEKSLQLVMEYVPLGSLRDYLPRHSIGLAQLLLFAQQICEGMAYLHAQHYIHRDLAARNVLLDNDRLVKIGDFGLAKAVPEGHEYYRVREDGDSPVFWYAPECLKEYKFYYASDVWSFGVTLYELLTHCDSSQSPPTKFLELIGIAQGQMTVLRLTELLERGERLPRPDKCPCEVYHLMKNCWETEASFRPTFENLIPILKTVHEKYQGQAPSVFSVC

[1] = phase II and phase III, treatment of AD; cited from earlier work
hygroscopicity by DVS = format: physicochemical
JAK3 = target: T1, JAK3 (Homo sapiens, UniProt P52333); experiment: migration detection kinase assay, JAK3; format: biochemical; conditions: 1 mM ATP
T1 sequence (P52333 1-1124): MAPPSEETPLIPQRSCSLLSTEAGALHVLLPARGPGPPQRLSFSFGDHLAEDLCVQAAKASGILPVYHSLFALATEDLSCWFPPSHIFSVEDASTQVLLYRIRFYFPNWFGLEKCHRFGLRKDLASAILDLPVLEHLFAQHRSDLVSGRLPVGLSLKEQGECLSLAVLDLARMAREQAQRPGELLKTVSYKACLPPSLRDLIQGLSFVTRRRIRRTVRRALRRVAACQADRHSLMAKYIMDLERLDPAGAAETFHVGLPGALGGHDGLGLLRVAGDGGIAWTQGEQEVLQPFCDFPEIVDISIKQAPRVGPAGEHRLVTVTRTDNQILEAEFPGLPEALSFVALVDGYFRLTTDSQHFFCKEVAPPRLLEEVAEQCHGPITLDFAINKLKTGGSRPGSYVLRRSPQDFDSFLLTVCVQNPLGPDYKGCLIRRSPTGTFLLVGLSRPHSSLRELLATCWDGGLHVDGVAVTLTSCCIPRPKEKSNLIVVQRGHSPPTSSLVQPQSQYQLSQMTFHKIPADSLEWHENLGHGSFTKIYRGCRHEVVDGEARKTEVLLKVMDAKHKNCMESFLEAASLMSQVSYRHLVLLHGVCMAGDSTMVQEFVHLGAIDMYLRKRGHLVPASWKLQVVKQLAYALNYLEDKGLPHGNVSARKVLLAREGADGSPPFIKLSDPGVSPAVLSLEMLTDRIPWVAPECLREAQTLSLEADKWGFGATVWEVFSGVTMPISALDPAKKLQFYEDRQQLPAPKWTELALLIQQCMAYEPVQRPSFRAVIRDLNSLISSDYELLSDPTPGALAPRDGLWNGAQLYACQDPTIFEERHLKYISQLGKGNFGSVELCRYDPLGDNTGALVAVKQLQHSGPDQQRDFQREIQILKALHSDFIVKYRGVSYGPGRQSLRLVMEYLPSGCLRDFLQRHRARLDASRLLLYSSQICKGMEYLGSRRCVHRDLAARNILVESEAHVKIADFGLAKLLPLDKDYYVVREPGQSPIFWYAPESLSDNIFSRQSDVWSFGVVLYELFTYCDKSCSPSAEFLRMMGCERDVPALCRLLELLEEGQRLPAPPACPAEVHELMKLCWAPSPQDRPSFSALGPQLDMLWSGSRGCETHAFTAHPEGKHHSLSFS

[2] = stability investigation (influencing factor, accelerated, intermediate, long term); format: physicochemical
simulated dry grinding = format: physicochemical; conditions: dry grinding for 3 min
[3] = water activity experiment at 25° C.; format: physicochemical; conditions: for XRPD result: 25° C.
Source text: The resulting solid was filtered and subjected to XRPD characterization.

[4] = press testing (crystal transformation under pressure); format: physicochemical; conditions: 10 Mpa, 5 min
simulated wet grinding = format: physicochemical; conditions: 3 min
[5] = dynamic solubility in simulated gastrointestinal fluid; format: physicochemical; conditions: for solubility at 1 h / solubility at 4 h / solubility at 24 h: 37° C.; for XRPD of remaining solid: after 24 h
Procedure: After 24 h, the pH of the suspension was determined. The remaining suspension was centrifuged, and the remaining solid was subjected to XRPD characterization.

[6] = fassif, thermodynamic from solid, simulated pre-meal intestinal fluid
[7] = fessif, thermodynamic from solid, simulated postprandial intestinal fluid
[8] = simulated gastric fluid, thermodynamic from solid, simulated gastric juice

Cc1cnc(Nc2cnn(C3CC(C)(C)OC(C)(C)C3)c2)nc1-c1ccc(C(=O)NCC#N)cc1 [LNK01004]
inhibition of proliferation of keratinocytes (keratinocytes): can also inhibit the proliferation of keratinocytes
inhibition of p-STAT signaling pathway induced by multiple cytokines (p-STAT signaling pathway): can inhibit p-STAT signaling pathway
inhibitory effect on JAK2 (JAK2; preclinical study): strong inhibitory effect
inhibitory effect on JAK1 (JAK1; preclinical study): strong inhibitory effect
inhibitory effect on TYK2 (TYK2; preclinical study): strong inhibitory effect

N#CC[C@H](C1CCCC1)n1cc(-c2ncnc3[nH]ccc23)cn1 [Ruxolitinib]
tolerability [1]: well tolerated

Cc1cnc(Nc2cnn(C3CC(C)(C)OC(C)(C)C3)c2)nc1-c1ccc(C(=O)NCC#N)cc1 [crystal form I]
hygroscopicity (hygroscopicity by DVS): no obvious hygroscopicity
Hygroscopicity, weight gain (DVS) (hygroscopicity by DVS; under 95% RH): Weight gain of 0.9%
IC50 (JAK3): 275 nM
stability: appearance, related substances, assay, moisture, crystal form, content, microbial limit ([2]; accelerated condition 40° C.±2° C./75%±5% RH, 6 months): microbial limit were not changed
Conclusion on crystal form ([2]; accelerated, intermediate condition and long term tests): keeps stable
stability: appearance, related substances, assay, moisture, crystal form, content ([2]; high humidity of 92.5% RH, 30 days): not changed
stability: appearance, related substances, assay, moisture, crystal form, content ([2]; high temperature of 60° C., 30 days): not changed
stability: appearance, related substances, assay, moisture, crystal form, content ([2]; illumination of 1×ICH (1.2×10^6 Lux·hr, 200 w·hr/m^2)): not changed
Conclusion on crystal form ([2]; influencing factor test: high temperature, high humidity, illumination): keeps stable
stability: appearance, related substances, assay, moisture, crystal form, content, microbial limit ([2]; long-term condition 25° C.±2° C./60%±5% RH, 18 months): microbial limit were not changed
change of crystal form after dry grinding (simulated dry grinding): The crystal form is not changed, and
change of crystallinity after dry grinding (simulated dry grinding): the crystallinity is slightly reduced
XRPD result ([3]; Acetone (a.w. = 0), 10 days): Crystal form I
XRPD result ([3]; Acetone (a.w. = 0), 22 days): Crystal form I
XRPD result ([3]; Acetone/water 36:64 (a.w. = 0.9), 12 days): Crystal form I
XRPD result ([3]; Acetone/water 60.4:39.6 (a.w. = 0.8), 12 days): Crystal form I
XRPD result ([3]; Acetone/water 75.8:24.2 (a.w. = 0.7), 12 days): Crystal form I
XRPD result ([3]; Acetone/water 91:9 (a.w. = 0.6), 10 days): Crystal form I
XRPD result ([3]; Acetone/water 91:9 (a.w. = 0.6), 22 days): Crystal form I
XRPD result ([3]; Acetone/water 94:6 (a.w. = 0.5), 10 days): Crystal form I
XRPD result ([3]; Acetone/water 94:6 (a.w. = 0.5), 22 days): Crystal form I
XRPD result ([3]; Acetone/water 97:3 (a.w. = 0.3), 10 days): Crystal form I
XRPD result ([3]; Acetone/water 97:3 (a.w. = 0.3), 22 days): Crystal form I
XRPD result ([3]; Acetone/water 99:1 (a.w. = 0.1), 10 days): Crystal form I
XRPD result ([3]; Acetone/water 99:1 (a.w. = 0.1), 22 days): Crystal form I
XRPD result ([3]; Water (a.w. = 1), 10 days): Crystal form I
XRPD result ([3]; Water (a.w. = 1), 22 days): Crystal form I
crystal form stability over water activity range ([3]; up to 22 days, water activity range 1% to 100%): not transformed into a hydrate or other crystal forms
IC50 (JAK2): < 0.51 nM
IC50 (JAK1; 1 mM ATP): 10 nM
XRPD after pressing [4]: Crystal form I
change of crystal form after pressing [4]: The crystal form is not changed,
IC50 (TYK2; 1 mM ATP): 1 nM
XRPD after wet grinding (simulated wet grinding; Ethanol): Crystal form I
change of crystal form after wet grinding (simulated wet grinding; Ethanol): The crystal form is not changed, and
change of crystallinity after wet grinding (simulated wet grinding; Ethanol): the crystallinity is slightly reduced
XRPD after wet grinding (simulated wet grinding; Water): Crystal form I
change of crystal form after wet grinding (simulated wet grinding; Water): The crystal form is not changed, and
change of crystallinity after wet grinding (simulated wet grinding; Water): the crystallinity is slightly reduced
solubility at 1 h [5, 6]: 100 µg/mL (≈ 212 µM)
solubility at 4 h [5, 6]: 111 µg/mL (≈ 234 µM)
solubility at 24 h [5, 6]: 120 µg/mL (≈ 253 µM)
solubility at 1 h [5, 7]: 389 µg/mL (≈ 822 µM)
solubility at 4 h [5, 7]: 474 µg/mL (≈ 1000 µM)
solubility at 24 h [5, 7]: 627 µg/mL (≈ 1320 µM)
solubility at 1 h [5, 8]: 97.4 µg/mL (≈ 206 µM)
solubility at 4 h [5, 8]: 92.3 µg/mL (≈ 195 µM)
solubility at 24 h [5, 8]: 102 µg/mL (≈ 215 µM)
XRPD of remaining solid ([5]; simulated gastric juice): Crystal form I
solubility ([5]; simulated gastrointestinal fluid, 37 °C, fassgf or other biorelevant, thermodynamic from solid, summary statement): > 8 µg/mL
XRPD of remaining solid ([5]; simulated postprandial intestinal fluid): Crystal form I
XRPD of remaining solid ([5]; simulated pre-meal intestinal fluid): Crystal form I
pH after 24 h ([5]; suspension in simulated gastric juice): 2.1 (simulated
pH after 24 h ([5]; suspension in simulated postprandial intestinal fluid): 5.1 (simulated
pH after 24 h ([5]; suspension in simulated pre-meal intestinal fluid): 6.6 (simulated
